Where two headings read alike, the source gives them in different places.
Settings: amide bond, BOP, DCM, 25.0 °C

Row | Compound | ring closure, yield of all isomers (from COC(=O)[C@H](Cc1cccc(OCCN)c1)NC(=O)c1cc(C(=O)O)cc(N(C)S(C)(=O)=O)c1, 2.0 h, 2 steps) | ring closure, yield of all isomers (from COC(=O)C(N)Cc1cccc(OC[C@@H](NC(=O)c2cc(C(=O)O)cc(N(C)S(C)(=O)=O)c2)c2ccccc2)c1, 1.76 mM, 72.0 h)
1 | COC(=O)[C@@H]1Cc2cccc(c2)OCCNC(=O)c2cc(cc(N(C)S(C)(=O)=O)c2)C(=O)N1 | 30% | –
2 | COC(=O)C1Cc2cccc(c2)OC[C@H](c2ccccc2)NC(=O)c2cc(cc(N(C)S(C)(=O)=O)c2)C(=O)N1 (some centres unmarked) | – | 62%
